These results are taken from paper PMC6112376, “Comprehensive Analyses and Prioritization of Tox21 10K Chemicals Affecting Mitochondrial Function by in-Depth Mechanistic Studies” (Environmental Health Perspectives, 2018).

Like-named read-outs stand apart in the source and are kept apart here.

Data set [1] relates to HepG2 cells. As to conditions: cited from earlier work; call rule not given here.
For data set [2], the system named is HepG2 cells. As to the kind of experiment: cells. As to conditions: Homo sapiens; for Emax: HepG2, read-out: MMP assays efficacy (%) HepG2.
In data set [3] the test system is rat primary hepatocytes. Description: MMP assay in rat primary hepatocytes. Conditions: for MMP assays IC50 (µM) Rat Hepatocytes / MMP assays efficacy (%) Rat Hepatocytes: mean ± SD of three experiments; for IC50: Rattus norvegicus, Hepatocyte.
[4] abbreviates: read-out: MMP assays IC50 (µM) qHTS-HepG2.
Setting [5] is: HepG2, read-out: MMP assays IC50 (µM) HepG2.
Setting [6] is: read-out: MMP assays IC50 (µM), qHTS-HepG2.
The mark [7] stands for this setting: read-out: MMP assays IC50 (µM) Rat Hepatocytes.

A word on the IC50: it is the midpoint of a concentration-inhibition curve. As to `Cc1cc(O)cc(C)c1Cl` [4-Chloro-3,5-dimethylphenol], the “MMP assays efficacy (%) qHTS-HepG2” value in data set [1] is recorded as -122±6%. Also, in data set [1] (setting [4]), the IC50 was 21 µM. The concentration for half-maximal inhibition (IC50) in data set [2] (setting [5]) came to 25.1 µM. Besides, in data set [2], the Emax was determined as 106%. Moreover, in data set [3], the “MMP assays IC50 (µM) Rat Hepatocytes” value was “inactive” and the “MMP assays efficacy (%) Rat Hepatocytes” value was “inactive”.
In the case of `CCCOC(=O)c1cc(O)c(O)c(O)c1` [Propyl gallate], in data set [1], the “MMP assays efficacy (%) qHTS-HepG2” value is -88±15%. Also, in data set [1] (setting [6]), the IC50 is 42.3 ± 3.93 µM. In addition, in data set [2] (setting [5]), the half-maximal inhibitory concentration (IC50) came to 35.5 µM. Further, the Emax in data set [2] was determined as 97%. Also, in data set [3], the “MMP assays IC50 (µM) Rat Hepatocytes” value was “inactive” and the “MMP assays efficacy (%) Rat Hepatocytes” value was “inactive”.
On to `Oc1cccc(Nc2ccccc2)c1` [Compound 3-Hydroxy-N-phenylaniline], for which, in data set [1], the “MMP assays efficacy (%) qHTS-HepG2” value is given as -110±13%. Also, in data set [1] (setting [4]), the half-maximal inhibitory concentration (IC50) was 28.5 ± 6.04 µM. The IC50 in data set [2] (setting [5]) came to 35.5 µM. Further, the Emax in data set [2] was determined as 110%. Moreover, in data set [3], the “MMP assays IC50 (µM) Rat Hepatocytes” value is “inactive” and the “MMP assays efficacy (%) Rat Hepatocytes” value is “inactive”.
As to `O=C1c2ccccc2C(=O)C1(O)O` [Ninhydrin], the “MMP assays efficacy (%) qHTS-HepG2” value in data set [1] is listed as -86±19%. Moreover, the IC50 in data set [1] (setting [6]) was 32 ± 9.69 µM. Moreover, in data set [2] (setting [5]), the IC50 was 56.2 µM. For the same compound, in data set [2], the Emax worked out at 85%. For the same compound, in data set [3], the “MMP assays IC50 (µM) Rat Hepatocytes” value was “inactive” and the “MMP assays efficacy (%) Rat Hepatocytes” value is “inactive”.
For the compound `O=C(Nc1cccc(C(F)(F)F)c1)c1cc(Br)cc(Br)c1O` [fluorosalan], the “MMP assays efficacy (%) qHTS-HepG2” value in data set [1] was -104±5%. In addition, the IC50 in data set [1] (setting [6]) is 0.24 ± 0.09 µM; in data set [2] (HepG2, read-out: IC50 in HepG2 cells (MMP, tier-one retest)), 0.19 µM; in data set [3] (1 h, read-out: IC50 in rat primary hepatocytes (MMP, tier-one retest)) it was 0.42 µM. Also, the Emax in data set [2] was determined as 100%. The “MMP assays efficacy (%) Rat Hepatocytes” value in data set [3] is -74±9%.
Consider `O=C1c2ccccc2C(=O)N1SC(Cl)(Cl)Cl` [Folpet], for which the “MMP assays efficacy (%) qHTS-HepG2” value in data set [1] is reported as -107±6%. The IC50 in data set [1] (setting [6]) was 8.25 ± 0.54 µM; in data set [2] (setting [5]) it was 14.1 µM; in data set [3] (setting [7]), 33.7 ± 20.2 µM. Further, the Emax in data set [2] is 100%.
As to `CCc1oc2ccccc2c1C(=O)c1cc(I)c(O)c(I)c1` [Benziodarone], in data set [1], the “MMP assays efficacy (%) qHTS-HepG2” value is recorded as -106±2%. The IC50 is 2.98 ± 0.63 µM in data set [1] (setting [4]), 4.35 µM in data set [2] (setting [5]) and 1.76 ± 0.68 µM in data set [3] (setting [7]). Besides, the Emax in data set [2] turned out to be 97%. Also, in data set [3], the “MMP assays efficacy (%) Rat Hepatocytes” value is on record as -95±10%.
With `CC(=O)Oc1cccc2c1C(=O)c1c(OC(C)=O)cc(C(=O)O)cc1C2=O` [Diacerein], the “MMP assays efficacy (%) qHTS-HepG2” value in data set [1] is listed as -81±16%. The IC50 was 20.6 ± 8.26 µM in data set [1] (setting [4]), 17.3 µM in data set [2] (setting [5]) and 14.2 ± 11.3 µM in data set [3] (setting [7]). Besides, the Emax in data set [2] turned out to be 61%. The “MMP assays efficacy (%) Rat Hepatocytes” value in data set [3] is recorded as -70±14%.
For `COc1ccc(C(=O)c2ccc(OC)cc2O)c(O)c1`, the “MMP assays efficacy (%) qHTS-HepG2” value in data set [1] was -95±11%. Further, the concentration for half-maximal inhibition (IC50) is 7.75 ± 1.8 µM in data set [1] (setting [4]), 12.6 µM in data set [2] (setting [5]) and 29.8 ± 13.8 µM in data set [3] (setting [7]). Besides, the Emax in data set [2] was determined as 109%. In addition, in data set [3], the “MMP assays efficacy (%) Rat Hepatocytes” value is -58±4%.
Take `CCC(CC)(CC(=O)Nc1cccc(/C=C/c2nc(C3CCC3)cs2)c1)C(=O)O` [Cinalukast]: the “MMP assays efficacy (%) qHTS-HepG2” value in data set [1] was -92±29%. For the same compound, the figures for the concentration for half-maximal inhibition (IC50) in data set [1] (setting [4]), in data set [2] (setting [5]) and in data set [3] (setting [7]) were 28.8 ± 1.17 µM, 17.3 µM and 13.5 ± 5.36 µM, respectively. The Emax in data set [2] is 96%. Moreover, the “MMP assays efficacy (%) Rat Hepatocytes” value in data set [3] is reported as -67±19%.
With `CC(C)OC(=O)C(C(=O)OC(C)C)=C1SC=CS1` [Malotilate], the “MMP assays efficacy (%) qHTS-HepG2” value in data set [1] was -82±14%. In addition, the IC50 in data set [1] (setting [6]) was 15 ± 1.99 µM; in data set [2] (setting [5]) it was 39.8 µM; in data set [3] (setting [7]) it was 23.9 ± 29.3 µM. In data set [2], the Emax is 79%. Moreover, in data set [3], the “MMP assays efficacy (%) Rat Hepatocytes” value was -106±108%.
Turning to `Nc1cc([N+](=O)[O-])ccc1C(=O)O` [4-Nitroanthranilic acid], the “MMP assays efficacy (%) qHTS-HepG2” value in data set [1] is recorded as -62±14%. Moreover, in data set [1] (setting [4]), the IC50 is 38.6 ± 17.2 µM. The IC50 in data set [2] (setting [5]) came out at 17.8 µM. In addition, in data set [2], the Emax came to 51%. For the same compound, in data set [3], the “MMP assays IC50 (µM) Rat Hepatocytes” value is “inactive” and the “MMP assays efficacy (%) Rat Hepatocytes” value is “inactive”.
On to `CCC(=O)Oc1ccc(/C(CC)=C(\CC)c2ccc(OC(=O)CC)cc2)cc1` [Diethylstilbestrol dipropionate], for which the “MMP assays efficacy (%) qHTS-HepG2” value in data set [1] was -112±3%. In addition, the half-maximal inhibitory concentration (IC50) was 10.5 ± 2.66 µM in data set [1] (setting [4]), 7.08 µM in data set [2] (setting [5]) and 49.3 ± 19.5 µM in data set [3] (setting [7]). In addition, the Emax in data set [2] turned out to be 101%. For the same compound, the “MMP assays efficacy (%) Rat Hepatocytes” value in data set [3] is given as -38±22%.
As for `CC(C)(C)CC(C)(C)c1ccc(O)c(Cc2ccc(Cl)cc2Cl)c1` [Clofoctol], in data set [1], the “MMP assays efficacy (%) qHTS-HepG2” value is -112±5%. Further, the IC50 is 1.64 ± 0.13 µM in data set [1] (setting [4]), 4.35 µM in data set [2] (setting [5]) and 15.7 ± 6.04 µM in data set [3] (setting [7]). Besides, the Emax in data set [2] came to 92%. In addition, the “MMP assays efficacy (%) Rat Hepatocytes” value in data set [3] was -65±37%.
With `Cc1nnc2n1-c1sc(CCc3ccc(CC(C)C)cc3)cc1C(c1ccccc1Cl)=NC2C` (stereo not shown) [Israpafant], the IC50 in data set [1] (setting [6]) is 22 ± 1.49 µM; in data set [2] (setting [5]), 27.5 µM; in data set [3] (setting [7]), 23.5 ± 5.67 µM. For the same compound, in data set [2], the Emax was 108%. The “MMP assays efficacy (%) Rat Hepatocytes” value in data set [3] is given as -55±10%.
For the compound `O=C1c2ccccc2C(=O)c2c(O)ccc(O)c21` [1,4-Dihydroxyanthracene-9,10-dione], the “MMP assays efficacy (%) qHTS-HepG2” value in data set [1] is reported as -103±19%. Also, the half-inhibitory concentration (IC50) in data set [1] (setting [4]) was 5.24 ± 3.43 µM; in data set [2] (setting [5]), 8.91 µM; in data set [3] (setting [7]), 4.81 ± 8.07 µM. Besides, the Emax in data set [2] amounted to 41%. In addition, in data set [3], the “MMP assays efficacy (%) Rat Hepatocytes” value is given as -25±3%.
For the compound `C#C[C@]1(O)CC[C@H]2[C@@H]3CCC4=CCCC[C@@H]4[C@H]3CC[C@@]21C` [Lynestrenol], the “MMP assays efficacy (%) qHTS-HepG2” value in data set [1] was -104±10%. Also, the IC50 is 16.6 ± 2.15 µM in data set [1] (setting [6]) and 7.4 µM in data set [2] (setting [5]). Besides, the Emax in data set [2] came to 55%. In addition, the “MMP assays IC50 (µM) Rat Hepatocytes” value in data set [3] is “inactive”. For the same compound, the “MMP assays efficacy (%) Rat Hepatocytes” value in data set [3] is “inactive”.
Take `C[C@@H]1C[C@H]2[C@@H]3CCC4=CC(=O)C=C[C@]4(C)[C@@]3(Cl)[C@@H](O)C[C@]2(C)[C@@]1(OC(=O)c1ccco1)C(=O)CCl` [Mometasone furoate]: in data set [1], the “MMP assays efficacy (%) qHTS-HepG2” value is on record as -101±23%. Further, the figures for the IC50 in data set [1] (setting [6]), in data set [2] (setting [5]) and in data set [3] (setting [7]) were 11.8 ± 0.8 µM, 8.3 µM and 14 ± 1.14 µM, respectively. The Emax in data set [2] was 71%. For the same compound, the “MMP assays efficacy (%) Rat Hepatocytes” value in data set [3] was -21±0%.
Consider `CC/C(=C(/CC)c1ccc(O)cc1)c1ccc(O)cc1` [Diethylstilbestrol], for which the “MMP assays efficacy (%) qHTS-HepG2” value in data set [1] is -105±14%. In addition, in data set [2], the Emax came out at 112%. For the same compound, in data set [3] (setting [7]), the IC50 turned out to be 25.2 ± 21.7 µM.
In the case of `Clc1ccc(Sc2cc(Cl)c(Cl)cc2Cl)cc1` [Tetrasul], the “MMP assays efficacy (%) qHTS-HepG2” value in data set [1] was -77±0%. In addition, the values for the IC50 in data set [1] (setting [6]) and in data set [2] (setting [5]) were 1.77 ± 0.25 µM and 2.51 µM, respectively. The Emax in data set [2] worked out at 72%. Also, in data set [3], the “MMP assays IC50 (µM) Rat Hepatocytes” value was “inactive”. The “MMP assays efficacy (%) Rat Hepatocytes” value in data set [3] was “inactive”.
On to `Nc1ccc2c(O)cc(S(=O)(=O)O)cc2c1`, for which, in data set [1], the “MMP assays efficacy (%) qHTS-HepG2” value is -55±5%. Moreover, the IC50 in data set [1] (setting [4]) was 27.3 ± 3.73 µM. For the same compound, the IC50 in data set [2] (setting [5]) stood at 39.8 µM. Moreover, the Emax in data set [2] was 40%. In data set [3], the “MMP assays IC50 (µM) Rat Hepatocytes” value was “inactive” and the “MMP assays efficacy (%) Rat Hepatocytes” value was “inactive”.
